# Assay results reported in ChEMBL document CHEMBL6083204, “Synthesis of a celastrol derivative as a cancer stem cell inhibitor through regulation of the STAT3 pathway for treatment of ovarian cancer” (RSC Med Chem, 2024).
# Active and inactive are the calls of the source. The calls are words filed in the database; no cut-off is given here.
# What was measured:
# SK-OV-3 [1] = assay: Antiproliferative activity against human SK-OV-3 cells assessed as decrease in CD44 positive CD24 negative cells expression at 0.2 uM incubated for 24 hrs by FITC staining based flow cytometry (reference value: 85.6 %); format: functional; design: scale not given: the % may be the effect or the level left
# A2780 [2] = assay: Induction of apoptosis in human A2780 cells assessed as increase in caspase-8 activity at 0.2 uM incubated for 24 hrs by flow cytometry (reference value: 1.2 %); format: functional
# A2780 [3] = assay: Induction of apoptosis in human A2780 cells assessed as necrotic cells at 0.4 uM incubated for 24 hrs by Annexin V-FITC/7-AAD staining based flow cytometry (reference value: 1 %); format: functional
# A2780 [4] = assay: Induction of apoptosis in human A2780 cells assessed as necrotic cells at 0.8 uM incubated for 24 hrs by Annexin V-FITC/7-AAD staining based flow cytometry (reference value: 1 %); format: functional
# A2780 [5] = assay: Induction of cell cycle arrest in human A2780 cells assessed as accumulation of cells at G2/M phase at 0.4 uM incubated for 24 hrs by BrdU staining based flow cytometry (reference value: 6.2 %); format: functional
# A2780 [6] = assay: Induction of cell cycle arrest in human A2780 cells assessed as accumulation of cells at G0/G1 phase at 0.2 uM incubated for 24 hrs by BrdU staining based flow cytometry (reference value: 42.4 %); format: functional
# [7] = target: Signal transducer and activator of transcription 3 (Homo sapiens) (UniProt P40763); assay: Inhibition of STAT3 in human SK-OV-3 cells assessed as downregulation of cytoplasmic STAT3 expression at 0.2 uM incubated for 24 hrs by Hoechst33342 staining based immunofluorescence assay; format: cell-based
# Signal transducer and activator of transcription 3 (Homo sapiens), sequence (P40763 whole entry): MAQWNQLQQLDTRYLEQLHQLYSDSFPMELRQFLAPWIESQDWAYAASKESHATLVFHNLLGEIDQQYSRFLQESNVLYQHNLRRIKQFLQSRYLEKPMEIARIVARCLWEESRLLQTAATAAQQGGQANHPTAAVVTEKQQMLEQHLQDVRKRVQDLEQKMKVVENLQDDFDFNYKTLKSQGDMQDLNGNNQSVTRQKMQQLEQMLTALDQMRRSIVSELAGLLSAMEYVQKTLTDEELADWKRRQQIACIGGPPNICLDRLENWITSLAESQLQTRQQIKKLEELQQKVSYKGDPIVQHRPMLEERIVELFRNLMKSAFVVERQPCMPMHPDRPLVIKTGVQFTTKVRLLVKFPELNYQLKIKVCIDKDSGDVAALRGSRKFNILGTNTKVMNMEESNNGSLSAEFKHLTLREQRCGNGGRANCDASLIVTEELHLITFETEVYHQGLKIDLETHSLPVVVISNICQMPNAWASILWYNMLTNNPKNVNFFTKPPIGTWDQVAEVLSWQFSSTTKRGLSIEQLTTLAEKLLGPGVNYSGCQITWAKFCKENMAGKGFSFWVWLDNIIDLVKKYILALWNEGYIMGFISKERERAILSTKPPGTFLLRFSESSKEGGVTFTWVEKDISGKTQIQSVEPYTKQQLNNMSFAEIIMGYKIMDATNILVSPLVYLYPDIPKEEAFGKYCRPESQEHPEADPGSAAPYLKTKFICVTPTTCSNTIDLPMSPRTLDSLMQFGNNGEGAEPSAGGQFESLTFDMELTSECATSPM
# SK-OV-3 [8] = assay: Induction of apoptosis in human SK-OV-3 cells assessed as increase in caspase-3 activity at 0.8 uM incubated for 24 hrs by flow cytometry (reference value: 4.6 %); format: functional
# SK-OV-3 [9] = assay: Antitumor activity against human SK-OV-3 cells xenografted in BALB/c mouse assessed as reduction in tumor weight at 2 mg/kg,ip administrated for 21 consecutive days; format: functional, organism-based
# SK-OV-3 [10] = assay: Induction of apoptosis in human SK-OV-3 cells assessed as increase in caspase-3 activity at 0.2 uM incubated for 24 hrs by flow cytometry (reference value: 4.6 %); format: functional
# SK-OV-3 [11] = assay: Induction of cell cycle arrest in human SK-OV-3 cells assessed as reduction of CDK4 expression at 0.2 uM incubated for 24 hrs by flow cytometry (reference value: 66.8 %); format: functional; design: scale not given: the % may be the effect or the level left
# A2780 [12] = assay: Induction of cell cycle arrest in human A2780 cells assessed as reduction of Cyclin D1 expression at 0.4 uM incubated for 24 hrs by flow cytometry (reference value: 92.5 %); format: functional; design: scale not given: the % may be the effect or the level left
# SK-OV-3 [13] = assay: Inhibition of cell invasion in human SK-OV-3 cells incubated for 24 hrs by crystal violet staining based transwell assay; format: functional
# [14] = Toxicity in BALB/c mouse xenografted with human SK-OV-3 cells assessed as change in body weight at 2 to 5 mg/kg,ip administrated for 21 consecutive days; format: organism-based; conditions: in vivo, dose 2-5 mg/kg
# SK-OV-3 [15] = assay: Induction of cell cycle arrest in human SK-OV-3 cells assessed as reduction of Cyclin D1 expression at 0.4 uM incubated for 24 hrs by flow cytometry (reference value: 93.8 %); format: functional; design: scale not given: the % may be the effect or the level left
# [16] = target: Signal transducer and activator of transcription 3 (Homo sapiens) (UniProt P40763); assay: Inhibition of STAT3 in human SK-OV-3 cells assessed as downregulation of STAT3 phosphorylation at Tyr705 residue in nuclei at 0.2 uM incubated for 24 hrs by Hoechst33342 staining based immunofluorescence assay; format: cell-based
# SK-OV-3 [17] = assay: Induction of apoptosis in human SK-OV-3 cells assessed as necrotic cells at 0.8 uM incubated for 24 hrs by Annexin V-FITC/7-AAD staining based flow cytometry (reference value: 0.6 %); format: functional
# [18] = Selectivity index, ratio of IC50 for cytotoxicity against human IOSE80 cells to IC50 for cytotoxicity against human SK-OV-3 cells
# A2780 [19] = assay: Induction of cell cycle arrest in human A2780 cells assessed as reduction of CDK2 expression at 0.2 uM incubated for 24 hrs by flow cytometry (reference value: 92.5 %); format: functional; design: scale not given: the % may be the effect or the level left
# [20] = target: Signal transducer and activator of transcription 3 (Homo sapiens) (UniProt P40763); assay: Inhibition of STAT3 in human SK-OV-3 cells assessed as downregulation of cytoplasmic STAT3 phosphorylation at Tyr705 residue at 0.2 uM incubated for 24 hrs by Hoechst33342 staining based immunofluorescence assay; format: cell-based
# [21] = target: Signal transducer and activator of transcription 3 (Homo sapiens) (UniProt P40763); assay: Inhibition of STAT3 in human SK-OV-3 cells assessed as downregulation of cytoplasmic STAT3 phosphorylation at Ser727 residue at 0.2 uM incubated for 24 hrs by Hoechst33342 staining based immunofluorescence assay; format: cell-based
# [22] = Toxicity in BALB/c mouse xenografted with human SK-OV-3 cells assessed as behavioral change at 2 to 5 mg/kg,ip administrated for 21 consecutive days; format: organism-based; conditions: in vivo, dose 2-5 mg/kg
# SK-OV-3 [23] = assay: Induction of apoptosis in human SK-OV-3 cells assessed as increase in caspase-8 activity at 0.2 uM incubated for 24 hrs by flow cytometry (reference value: 2.5 %); format: functional
# A2780 [24] = assay: Inhibition of cell invasion in human A2780 cells incubated for 24 hrs by crystal violet staining based transwell assay; format: functional
# [25] = Toxicity in BALB/c mouse xenografted with human SK-OV-3 cells assessed as pathological change in lung at 2 to 5 mg/kg,ip administrated for 21 consecutive days by hematoxylin and eosin staining based assay; format: organism-based; conditions: in vivo, dose 2-5 mg/kg
# A2780 [26] = assay: Inhibition of colony formation in human A2780 cells assessed as reduction in colony size incubated for 10 days by crystal violet staining based analysis; format: functional, cell-based; conditions: time 10.0 day
# Mitochondrial membrane = assay: Induction of mitochondrial membrane potential loss in human A2780 cells at 0.2 uM incubated for 24 hrs by JC-1 staining based flow cytometry (reference value: 81 %)
# A2780 [27] = assay: Induction of apoptosis in human A2780 cells assessed as early apoptotic cells at 0.4 uM incubated for 24 hrs by Annexin V-FITC/7-AAD staining based flow cytometry (reference value: 1.9 %); format: functional
# A2780 [28] = assay: Antiproliferative activity against human A2780 cells assessed as decrease in ALDH positive cells at 0.4 uM incubated for 24 hrs by ALDEFLUOR staining based flow cytometry (reference value: 32.5 %); format: functional; design: scale not given: the % may be the effect or the level left
# A2780 [29] = assay: Antiproliferative activity against human A2780 cells assessed as decrease in ALDH positive cells at 0.2 uM incubated for 24 hrs by ALDEFLUOR staining based flow cytometry (reference value: 32.5 %); format: functional; design: scale not given: the % may be the effect or the level left
# SK-OV-3 [30] = assay: Inhibition of cell migration in human SK-OV-3 cells assessed as reduction in number of migrated cells at 0.1 to 0.4 uM incubated for 24 hrs by crystal violet staining based transwell assay; format: functional; conditions: dose 0.1-0.4 µM
# SK-OV-3 [31] = assay: Inhibition of colony formation in human SK-OV-3 cells assessed as reduction in colony size incubated for 10 days by crystal violet staining based analysis; format: functional, cell-based; conditions: time 10.0 day
# SK-OV-3 [32] = assay: Induction of cell cycle arrest in human SK-OV-3 cells assessed as reduction of CDK4 expression at 0.4 uM incubated for 24 hrs by flow cytometry (reference value: 66.8 %); format: functional; design: scale not given: the % may be the effect or the level left
# A2780 [33] = assay: Inhibition of colony formation in human A2780 cells assessed as reduction in colony number incubated for 10 days by crystal violet staining based analysis; format: functional, cell-based; conditions: time 10.0 day
smiles,measurement,setting,value
CC1=C(O)C(=O)C=C2C1=CC=C1[C@@]2(C)CC[C@@]2(C)[C@@H]3C[C@](C)(C(=O)N4CCNCC4)CC[C@]3(C)CC[C@]12C,Activity,SK-OV-3 [1],64.53%
same,Activity,A2780 [2],1%
same,Activity,A2780 [3],2.3%
same,Activity,A2780 [4],7.1%
same,Activity,A2780 [5],10.1%
same,Activity,A2780 [6],53.7%
same,inhibition,[7],Active; Showed Mild Inhibition Activity
same,Activity,SK-OV-3 [8],33.8%
same,Activity,SK-OV-3 [9],Active
same,Activity,SK-OV-3 [10],6.8%
same,Activity,SK-OV-3 [11],67%
same,Activity,A2780 [12],67.7%
same,inhibition,SK-OV-3 [13],Dose-dependent-effect
same,Activity,[14],Non-toxic
same,Activity,SK-OV-3 [15],68.2%
same,inhibition,[16],Active
same,Activity,SK-OV-3 [17],1.4%
same,Ratio IC50,[18],4.81
same,Activity,A2780 [19],89.6%
same,inhibition,[20],Active; Showed Mild Inhibition Activity
same,inhibition,[21],Active; Showed Mild Inhibition Activity
same,Activity,[22],Non-toxic
same,Activity,SK-OV-3 [23],6.2%
same,inhibition,A2780 [24],Dose-dependent-effect
same,Activity,[25],Non-toxic
same,inhibition,A2780 [26],Dose-dependent-effect
same,Activity,Mitochondrial membrane,53.2%
same,Activity,A2780 [27],7.4%
same,Activity,A2780 [28],0.37%
same,Activity,A2780 [29],3.83%
same,inhibition,SK-OV-3 [30],Active
same,inhibition,SK-OV-3 [31],Dose-dependent-effect
same,Activity,SK-OV-3 [32],70.6%
same,inhibition,A2780 [33],Dose-dependent-effect
